Converted amounts (≈) assume the structure as drawn. The source made the active and inactive calls. No cut-off for these calls is given here.
What was measured:
[1] = Inhibition of DNAK (unknown origin) assessed as reactivation of luciferase aggregates after 2 hrs in presence of Tween 80
[2] = Inhibition of DNAK (unknown origin) assessed as reactivation of luciferase aggregates after 2 hrs
[3] = Inhibition of DNAK/CLPB (unknown origin) assessed as reactivation of malate dehydrogenase aggregates after 2 hrs in presence of Tween 80
[4] = Inhibition of DNAK/CLPB (unknown origin) assessed as reactivation of malate dehydrogenase aggregates after 2 hrs
[5] = Effect on ATPase activity of CLPB (unknown origin) expressed in Escherichia coli MC4100 using alpha-casein as substrate at 1 to 100 uM by spectrophotometric analysis
[6] = Effect on ATPase activity of CLPB (unknown origin) expressed in Escherichia coli MC4100 at 1 to 100 uM by spectrophotometric analysis
[7] = Binding affinity to CLPB (unknown origin) expressed in Escherichia coli MC4100 assessed as change in melting temperature at 100 to 200 uM after 30 mins by DSF analysis in presence of ATPgammaS
[8] = Binding affinity to CLPB (unknown origin) expressed in Escherichia coli MC4100 assessed as change in melting temperature at 100 to 200 uM after 30 mins by DSF analysis in presence of ADP
[9] = Binding affinity to CLPB (unknown origin) expressed in Escherichia coli MC4100 assessed as change in melting temperature at 100 to 200 uM after 30 mins by DSF analysis in presence of ATP
[10] = Binding affinity to CLPB (unknown origin) expressed in Escherichia coli MC4100 assessed as change in melting temperature at 100 to 200 uM after 30 mins by DSF analysis
[11] = Activation of CLPB (unknown origin) expressed in Escherichia coli MC4100 using alpha-casein as substrate at 1 to 100 uM by spectrophotometric analysis
[12] = Activation of CLPB (unknown origin) expressed in Escherichia coli MC4100 at 1 to 100 uM by spectrophotometric analysis
Escherichia coli [13] = assay: Antibacterial activity against Escherichia coli BL21(DE3) assessed as growth inhibition at 37 degC after 24 hrs by two-fold dilution method; format: functional
[14] = Cytotoxicity against human HeLa cells assessed as cell viability at 40 to 100 uM after 72 hrs by tetrazolium reduction assay relative to control; format: cell-based; conditions: read-out: Activity
[15] = Cytotoxicity against CHO cells assessed as cell viability at 40 to 100 uM after 72 hrs by tetrazolium reduction assay relative to control; format: cell-based, Cricetulus griseus; conditions: chinese hamster, read-out: Activity
Escherichia coli [16] = assay: Antibacterial activity against TolC-deleted Escherichia coli JLS1015 at 37 to 47 degC after 7 hrs by two-fold dilution method; format: functional; conditions: JLS1015, 7 h
Escherichia coli [17] = assay: Antibacterial activity against CLPB-deleted Escherichia coli MC4100 assessed as growth inhibition at 37 degC after 24 hrs by two-fold dilution method; format: functional, organism-based
Escherichia coli [18] = assay: Antibacterial activity against Escherichia coli MC4100 assessed as growth inhibition at 37 degC after 24 hrs by two-fold dilution method; format: functional, organism-based
Escherichia coli [19] = assay: Antibacterial activity against CLPB-deleted Escherichia coli MC4100 assessed as reduction of CFU count at 300 uM at 37 degC after 24 hrs by two-fold dilution method; format: functional, organism-based
Escherichia coli [20] = assay: Antibacterial activity against CLPB-deleted Escherichia coli MC4100 assessed as reduction of CFU count at 300 uM at 37 degC after 24 hrs by two-fold dilution method in presence of paraquat; format: functional, organism-based
Escherichia coli [21] = assay: Antibacterial activity against Escherichia coli MC4100 assessed as reduction of CFU count at 300 uM at 42 degC after 24 hrs by two-fold dilution method; format: functional
Escherichia coli [22] = assay: Antibacterial activity against Escherichia coli MC4100 assessed as reduction of CFU count at 300 uM at 37 degC after 24 hrs by two-fold dilution method in presence of paraquat; format: functional
Escherichia coli [23] = assay: Antibacterial activity against Escherichia coli MC4100 assessed as growth inhibition at 42 degC after 24 hrs by two-fold dilution method in presence of paraquat; format: functional; conditions: MC4100, 24 h
[24] = Reduction of ATPase activity of DNAK (unknown origin) using ALLQSRLLLSAPRRAAATARY as substrate at 100 uM by spectrophotometric analysis relative to control in presence of cochaperone GrpE
[25] = Reduction of ATPase activity of DNAK (unknown origin) using ALLQSRLLLSAPRRAAATARY as substrate at 100 uM by spectrophotometric analysis relative to control in presence of cochaperone DnaJ
[26] = Reduction of ATPase activity of DNAK (unknown origin) at 100 uM by spectrophotometric analysis
[27] = Effect on ATPase activity of DNAK (unknown origin) using ALLQSRLLLSAPRRAAATARY as substrate at 100 uM by spectrofluorimetric analysis
Escherichia coli [28] = assay: Antibacterial activity against Escherichia coli BL21(DE3) assessed as growth inhibition at 42 degC after 24 hrs by two-fold dilution method in presence of paraquat; format: functional
[29] = Binding affinity to CLPB (unknown origin) expressed in Escherichia coli MC4100 up to 400 seconds by surface plasmon resonance analysis
[30] = Binding affinity to CLPB hexamer (unknown origin) expressed in Escherichia coli MC4100 at 100 uM by sedimentation equilibrium analysis
[31] = Binding affinity to CLPB E276A/E678A mutant (unknown origin)-alpha-casein complex expressed in Escherichia coli MC4100 at 0.1 to 1000 uM by titrimetric analysis
[32] = Binding affinity to CLPB E276A/E678A mutant (unknown origin) expressed in Escherichia coli MC4100 at 80 uM in presence of alpha-casein by spectrofluorimetric analysis
[33] = Binding affinity to CLPB E276A/E678A mutant (unknown origin) expressed in Escherichia coli MC4100 assessed as change in melting temperature by DSF analysis
Escherichia coli [34] = assay: Antibacterial activity against CLPB-deleted Escherichia coli MC4100 assessed as growth inhibition at 0.1 to 1000 uM at 37 to 47 degC after 24 hrs by two-fold dilution method in presence of paraquat; format: functional, organism-based
Escherichia coli [35] = assay: Antibacterial activity against Escherichia coli BL21(DE3) assessed as growth inhibition at 0.1 to 1000 uM at 37 to 47 degC after 24 hrs by two-fold dilution method in presence of paraquat; format: functional
[36] = Inhibition of ATPase activity of CLPB (unknown origin) expressed in Escherichia coli MC4100 using 20 to 100 uM alpha-casein as substrate at 1 to 100 uM by spectrophotometric analysis
[37] = Inhibition of ATPase activity of CLPB (unknown origin) expressed in Escherichia coli MC4100 using 10 uM alpha-casein as substrate at 1 to 100 uM by spectrophotometric analysis
Escherichia coli [38] = assay: Antibacterial activity against Escherichia coli MC4100 assessed as growth inhibition at 0.1 to 1000 uM at 37 to 47 degC after 24 hrs by two-fold dilution method in presence of paraquat; format: functional, organism-based
[39] = Inhibition of CLPB (unknown origin) expressed in Escherichia coli MC4100 using alpha-casein as substrate at 1 to 100 uM by spectrophotometric analysis
[40] = Inhibition of CLPB (unknown origin) expressed in Escherichia coli MC4100 at 1 to 100 uM by spectrophotometric analysis
[41] = Binding affinity to CLPB E276A/E678A mutant (unknown origin) expressed in Escherichia coli MC4100 at 100 uM in presence of alpha-casein by spectrofluorimetric analysis

C=CCN1C(=O)C(=C2C(=O)Nc3ccccc32)SC1=S
IC50 [1]: > 100 µM | IC50 [2]: > 100 µM | IC50 [3]: > 100 µM | IC50 [4]: > 100 µM | Activity [5]: inactive | Activity [6]: inactive | ΔTm [7]: 5.4 °C | ΔTm [8]: 7.6 °C | ΔTm [9]: 7.9 °C | ΔTm [10]: 9 °C

C(=C\C=C\Nc1ccccc1)/C=C/Nc1ccccc1
IC50 [2]: 100 µM | IC50 [4]: > 100 µM | Activity [11]: Active | Activity [12]: Active | ΔTm [7]: 13.3 °C | ΔTm [8]: 12.3 °C | ΔTm [9]: 11.9 °C | ΔTm [10]: 17.5 °C

CC1(C)S[C@@H]2[C@H](NC(=O)[C@H](N)c3ccccc3)C(=O)N2[C@H]1C(=O)O [AMPICILLIN]
MIC (Escherichia coli [13]): 2 µM (≈ 0.699 µg/mL)

CC(C)[C@H](C(=O)O)N1C(=O)/C(=C2/C(=O)Nc3ccc(Br)cc32)SC1=S
IC50 [4]: > 100 µM | Activity [5]: inactive | Activity [6]: inactive | ΔTm [7]: 19.3 °C | ΔTm [8]: 19.9 °C | ΔTm [9]: 22.1 °C | ΔTm [10]: 24.2 °C

O=C1Nc2ccc([N+](=O)[O-])cc2/C1=C1\SC(=O)N(c2ccc(Cl)cc2)C1=O
IC50 [1]: 60 µM | IC50 [2]: 40 µM | IC50 [3]: 6 µM | IC50 [4]: 10 µM | Activity [11]: Active | Activity [12]: Active | ΔTm [7]: 12.3 °C | ΔTm [10]: > 40 °C

O=Cc1cc(Cc2ccccc2Cl)cc([N+](=O)[O-])c1O
viability at 72 h, up to 100 µM [14]: 50% | viability at 72 h, up to 100 µM [15]: 50% | MIC (Escherichia coli [16]): 5 µM (≈ 1.46 µg/mL) | growth inhibition (GI) (Escherichia coli [17]): Active | growth inhibition (GI) (Escherichia coli [18]): Active | Activity (Escherichia coli [19]): inactive | Activity (Escherichia coli [20]): inactive | log10cfu (Escherichia coli [21]): 2 | log10cfu (Escherichia coli [22]): 2 | MIC (Escherichia coli [23]): 60 µM | fold change (FC) [24]: 7 | fold change (FC) [25]: 7 | Activity [26]: Active | Activity [27]: inactive | MIC (Escherichia coli [28]): 60 µM | IC50 [1]: 6 µM | IC50 [2]: 4 µM | IC50 [3]: 6 µM | IC50 [4]: 7 µM | Kd [29]: 12.9 µM | Activity [30]: Active | Activity [31]: Active | Activity [32]: Active | Kd [33]: 12 µM | growth inhibition (GI) (Escherichia coli [34]): inactive | growth inhibition (GI) (Escherichia coli [35]): Active | inhibition [36]: Active | inhibition [37]: Active | growth inhibition (GI) (Escherichia coli [38]): Active | ΔTm [7]: 4.9 °C | ΔTm [8]: 6.7 °C | ΔTm [9]: 7.2 °C | ΔTm [10]: 8.1 °C

CCn1c(=O)c(C(=O)Nc2cccc(O)c2)c(O)c2ccccc21
IC50 [1]: > 100 µM | IC50 [2]: > 100 µM | IC50 [3]: 40 µM | IC50 [4]: 65 µM | Activity [31]: inactive | inhibition [39]: Active | inhibition [40]: Active | ΔTm [7]: -0.8 °C | ΔTm [8]: 1.5 °C | ΔTm [9]: 2.2 °C | ΔTm [10]: -0.8 °C

Cc1c(Cl)c([N+](=O)[O-])nn1CC(=O)Nc1cc(Oc2ccc(Cl)cc2Cl)cc([N+](=O)[O-])c1
IC50 [2]: > 100 µM | IC50 [4]: > 100 µM | Activity [5]: inactive | Activity [6]: inactive | ΔTm [8]: 0.7 °C | ΔTm [9]: 2 °C | ΔTm [10]: 14.3 °C

O=C(Nc1cccc([N+](=O)[O-])c1)c1sc2cccc(Cl)c2c1Cl
IC50 [2]: > 100 µM | IC50 [4]: 90 µM | Activity [5]: inactive | Activity [6]: inactive | ΔTm [7]: 4.2 °C | ΔTm [8]: 5.2 °C | ΔTm [9]: 1.8 °C | ΔTm [10]: 0.8 °C

O=C1Nc2ccc(Br)cc2/C1=C1/SC(=O)N(c2ccccc2)C1=O
IC50 [1]: 50 µM | IC50 [2]: 85 µM | IC50 [3]: 15 µM | IC50 [4]: 30 µM | Activity [11]: Active | Activity [12]: Active | ΔTm [7]: 14.6 °C | ΔTm [8]: -0.7 °C | ΔTm [9]: -0.2 °C | ΔTm [10]: 18.1 °C

COc1cc(/C=C2/C(=O)NN(c3ccc(Cl)cc3)C2=O)ccc1OCc1ccc(F)cc1
IC50 [1]: > 100 µM | IC50 [2]: > 100 µM | IC50 [3]: 11 µM | IC50 [4]: 7.5 µM | Activity [11]: Active | Activity [12]: Active | ΔTm [7]: 7.1 °C | ΔTm [8]: 0.7 °C | ΔTm [9]: 1.2 °C | ΔTm [10]: 1 °C

O=C(Nc1ccccc1)OCCSC(=O)Nc1ccc(Cl)c(Cl)c1
viability at 72 h, up to 100 µM [14]: 50% | viability at 72 h, up to 100 µM [15]: 50% | MIC (Escherichia coli [16]): 5 µM (≈ 1.93 µg/mL) | growth inhibition (GI) (Escherichia coli [17]): Active | growth inhibition (GI) (Escherichia coli [18]): Active | Activity (Escherichia coli [19]): inactive | Activity (Escherichia coli [20]): inactive | log10cfu (Escherichia coli [21]): 2 | log10cfu (Escherichia coli [22]): 2 | MIC (Escherichia coli [23]): 60 µM | MIC (Escherichia coli [28]): 60 µM | IC50 [1]: > 100 µM | IC50 [2]: > 100 µM | IC50 [3]: 15 µM | IC50 [4]: 20 µM | Kd [29]: 19 µM | Activity [31]: inactive | Activity [41]: Active | Kd [33]: 23 µM | growth inhibition (GI) (Escherichia coli [34]): inactive | growth inhibition (GI) (Escherichia coli [35]): Active | inhibition [36]: inactive | inhibition [37]: Active | growth inhibition (GI) (Escherichia coli [38]): Active | ΔTm [7]: 2 °C | ΔTm [8]: 0.8 °C | ΔTm [9]: 0.8 °C | ΔTm [10]: 1.5 °C

COCCCN1C(=O)C(=C2C(=O)Nc3ccc(Br)cc32)SC1=S
IC50 [4]: > 100 µM | Activity [5]: inactive | Activity [6]: inactive | ΔTm [7]: 14.3 °C | ΔTm [8]: 9.4 °C | ΔTm [9]: 13.1 °C | ΔTm [10]: 8.4 °C
